Data as given in patent publication EP1270558B1, “"Compound for the treatment of atherosclerotic-thrombotic pathological conditions"” (Casagrande, Cesare, priority 2001, dated 2003).
Read-outs that look alike come from different tables or passages of the source.

How the values were obtained:
[1] = test system: platelet-rich plasma (PRP); assay: Platelet aggregation in platelet-rich plasma (aggregometer, light transmittance); format: cell-based; conditions: for IC50: Homo sapiens, Platelet, 10 min, 10 min incubation
Procedure: Platelet aggregation experiments were performed on platelet-rich plasma (PRP) prepared from blood of healthy human subjects, who had not taken cyclooxygenase inhibitors (acetylsalicylic acid, non-steroidal antiinflammatory agents) for at least two weeks. Blood was collected in test tubes containing a 3.2 % sodium citrate solution (1/10 of blood volume) and immediately centrifuged at 150 x g for 15 minutes. Samples of PRP were further centrifuged at 12,000 x g in order to obtain platelet-poor plasma (PPP), used for calibration of light transmittance of the double-channel aggregometer, fixing the transmittance of PRP as 10 % and that of PPP as 90 %. Platelet aggregation in PRP of each subject was tested measuring the percent increase in transmittance under the addition of increasing amounts of sodium arachidonate, in concentrations in the range from 300 to 900 µM, or of collagen, in concentrations in the range from 0.5 to 2.5 µg/ml, or of U-46619, in concentrations in the range from 0.2 to 1.6 µM. […] In this way the threshold concentration, i.e., the concentration inducing a submaximal irreversible aggregation was assessed in each subject with the three agents.
PRP samples of subjects not responding to the maximal concentrations were discarded.

[2] = test system: transcellular synthesis of prostacyclin; assay: Transcellular prostacyclin synthesis: PRP layered on acetylsalicylic acid-pretreated endothelial cells (6-keto-prostaglandin F1α by radioimmunoassay); format: cell-based, bovine
Procedure: The effects on the transcellular synthesis of prostacyclin from endoperoxides generated in platelets were assessed by layering platelet rich plasma (PRP), obtained from healthy human subjects as described above, on cultured bovine endothelial cells (5 x 10^5 cells/well). The endothelial cells were pretreated with acetylsalicylic acid (10^-4 M) in order to inhibit the direct synthesis of endoperoxides, and washed twice with Dulbecco's phosphate buffered saline. Then to individual samples of endothelial cells there were added at 37°C while shaking on an oscillating platform, 0.5 ml of PRP samples pretreated with the test compounds in various concentrations, ranging from 10^-7 M to 10 ^-3 M. Collagen (0.5 µg/ml) was then added to each sample. After 2 minutes of contact at 37°C, PRP was removed and centrifuged at 12,000 x g, and the supernatant was frozen and kept at -20°C for the determination of 6-keto-prostaglandin F1α by radioimmunoassay.
6-Keto-prostaglandin F1α is a stable metabolite into which prostacyclin is rapidly converted.

thromboxane synthesis = assay: Thromboxane synthesis in clotting blood (serum TxB2 by radioimmunoassay); format: cell-based; conditions: human blood clotted 60 min at 37°C
Procedure: Test compounds were added in a series of concentrations ranging from 10^-7 M to 10^-3 M to samples of blood from healthy human subjects, who had not taken cyclooxygenase inhibitors (acetylsalicylic acid, non-steroidal antiinflammatory agents) for at least two weeks. The blood samples were allowed to clot for 60 min in a bath at 37°C, and then centrifuged at 2500 x g for 10 min. The serum was separated and kept frozen at -20°C for the determination of TxB2 by radioimmunoassay. TxB2 is the stable metabolite into which thromboxane A2 is rapidly converted.

rabbit aortae = assay: Vascular relaxation of precontracted aortic rings in vitro; format: cell-based; conditions: for EC50: Oryctolagus cuniculus, read-out: calculated EC50
Procedure: The ability to induce vascular relaxation by acting as a donor of nitric oxide was tested in vitro on rabbit aortae. Rings of aortae were suspended in a Krebs-Henseleit solution at 37°C, submitted to a 1 g tension and connected to a force transducer.

[3] = human PRP on acetylsalicylic acid-treated bovine endothelial cells, collagen 0.5 µg/ml
[4] = rabbit aortic rings contracted with norepinephrine (10^-6 M)

O=C(O)/C=C/c1ccc(Cn2ccnc2)cc1 [ozagrel, (E)-3-[4-(1H-imidazol-1-ylmethyl)-phenyl]-2-propenoic acid, reference compound]
inhibitory activity in the aggregation induced by collagen ([1]; human PRP, up to 10^-3 M concentrations): did not show any significant inhibitory activity

O=C(O)Cc1ccc(CCNS(=O)(=O)c2ccc(Cl)cc2)cc1 [daltroban, p-[2-(p-chlorobenzenesulfonamido)ethyl]phenylacetic, reference compound]
production of the prostacyclin metabolite (effect in words) [2, 3]: did not stimulate the synthesis of prostacyclin | effect on thromboxane synthesis (thromboxane synthesis): did not show any effect

COc1ccc(C(=O)N[C@H]2CC[C@H](O[N+](=O)[O-])CC2)cc1C(=O)NCc1cccnc1 [4-methoxy-N^1-(4-trans-nitrooxycyclohexyl)-N^3-(3-pyridinylmethyl)-1,3-benzenedicarboxamide]
concentration from which production of the prostacyclin metabolite was increased [2, 3]: 10^-6 M | production of the prostacyclin metabolite (effect in words) [2, 3]: markedly increased | production of the prostacyclin metabolite (6-keto-prostaglandin F1α), level reached ([2]; human PRP on acetylsalicylic acid-treated bovine endothelial cells, collagen 0.5 µg/ml, up to): 800 to 1600 pg/mL | level times higher of the amount produced in basal conditions by endothelial cells not submitted to cyclooxygenase inhibition ([2]; relative to basal production of untreated endothelial cells): 8-16 times | IC50 (thromboxane synthesis; 1 h, read-out: IC50 (inhibit thromboxane synthesis)): 18 µM | EC50 (rabbit aortae; norepinephrine-contracted rabbit aortic rings, methylene blue 10^-5 M in the bath): 55 µM | EC50 (rabbit aortae; [4]): 3.2 µM | relaxation in aortic rings (rabbit aortae; aortic rings contracted with 5-hydroxytryptamine): similarly able to produce relaxation | relaxation in aortic rings (rabbit aortae; aortic rings contracted with U-46619): similarly able to produce relaxation | concentration inducing a complete relaxation of the aortic ring (rabbit aortae; [4]): 10^-4 M | IC50 ([1]; aggregation induced by U-46619 (threshold concentration)): 33 µM | IC50 ([1]; aggregation induced by arachidonic acid (threshold concentration)): 12 µM | IC50 ([1]; aggregation induced by collagen (threshold concentration)): 22 µM
